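How tested: cells in 96-well plates exposed to compound for 48 hours at five concentrations. GI50 marks 50% less growth.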 Active and inactive are the calls of the source. Cut-off read from the data, not from the text of the source: active = GI50 up to about 1.1 µM and inactive = higher.
Key:
Experiment in all cases: growth of human tumour cells (NCI), 48 h
[1] = test system: BT-549
[2] = test system: DU-145
[3] = test system: HOP-62
[4] = test system: KM12
[5] = test system: NCI-H226
[6] = test system: NCI-H23
[7] = test system: OVCAR-8
[8] = test system: PC-3
[9] = test system: RPMI-8226
[10] = test system: SK-MEL-28
[11] = test system: SW-620
[12] = test system: UACC-257
[13] = test system: UACC-62
[14] = test system: HCT-15
[15] = test system: HOP-92
[16] = test system: Malme-3M
[17] = test system: NCI-H522
[18] = test system: CCRF-CEM
[19] = test system: Hs-578T

| SMILES | GI50 [1] | GI50 [2] | GI50 [3] | GI50 [4] | GI50 [5] | GI50 [6] | GI50 [7] | GI50 [8] | GI50 [9] | GI50 [10] | GI50 [11] | GI50 [12] | GI50 [13] | GI50 [14] [µM] | GI50 [15] | GI50 [16] | GI50 [17] | GI50 [18] | GI50 [19] |
| --- | --- | --- | --- | --- | --- | --- | --- | --- | --- | --- | --- | --- | --- | --- | --- | --- | --- | --- | --- |
| NNC(=O)Cn1c2ccc(Br)cc2c2nc3ccccc3nc21 | > 100 µM (inactive) | > 100 µM (inactive) | 19.8 µM (inactive) | > 100 µM (inactive) | > 100 µM (inactive) | 20.4 µM (inactive) | 54.3 µM (inactive) | > 100 µM (inactive) | > 100 µM (inactive) | 47.8 µM (inactive) | > 100 µM (inactive) | 76.4 µM (inactive) | 56.5 µM (inactive) |  |  |  |  |  |  |
| NCCC(=O)N[C@H](Cc1cc(O)c(O)c(SCC(NC(=O)CC[C@H](N)C(=O)O)C(=O)NCC(=O)O)c1)C(=O)O (stereo partly specified) | > 50 µM (inactive) | > 50 µM (inactive) | > 50 µM (inactive) | > 50 µM (inactive) | > 50 µM (inactive) | > 50 µM (inactive) |  | > 50 µM (inactive) | > 50 µM (inactive) | > 50 µM (inactive) | > 50 µM (inactive) | > 50 µM (inactive) | > 50 µM (inactive) | > 50 | > 50 µM (inactive) | > 50 µM (inactive) | > 50 µM (inactive) |  |  |
| O=C1NC(=N/c2ccccc2)/C(=N\c2ccccc2)N1c1ccccc1 |  | 12.4 µM (inactive) | 18.5 µM (inactive) | 15.6 µM (inactive) | 16.9 µM (inactive) | 16.7 µM (inactive) | 15.8 µM (inactive) | 14.5 µM (inactive) | 27 µM (inactive) | 14.8 µM (inactive) | 16.5 µM (inactive) | 15.8 µM (inactive) | 12.7 µM (inactive) | 14.5 | 16.3 µM (inactive) | 17.4 µM (inactive) | 1.7 µM (inactive) | 30.3 µM (inactive) | 16.6 µM (inactive) |
| Cc1ccc2nc(N/N=C/c3ccc(C)s3)cc(C)c2c1 |  | 11 µM (inactive) | 15.7 µM (inactive) | 4.76 µM (inactive) | 10.1 µM (inactive) | 7.98 µM (inactive) | 12.9 µM (inactive) | 11.8 µM (inactive) | 3.61 µM (inactive) | 6.76 µM (inactive) | 6.1 µM (inactive) | 5.56 µM (inactive) | 10.6 µM (inactive) | 4.52 | 4.44 µM (inactive) | 12.8 µM (inactive) | 4.52 µM (inactive) | 5.11 µM (inactive) | 15.2 µM (inactive) |
| CCCCC(=O)Nc1ccc2cc(C(=O)OC)c(ON3C(=O)c4ccccc4C3=O)nc2n1 | 38.3 µM (inactive) |  | 18.6 µM (inactive) | 30.3 µM (inactive) | 22.5 µM (inactive) | 44.1 µM (inactive) | 25 µM (inactive) | 28.4 µM (inactive) | 89.9 µM (inactive) | 23.2 µM (inactive) | 46 µM (inactive) | 23.5 µM (inactive) |  | 40.6 | 26.4 µM (inactive) | 17.9 µM (inactive) | 23.3 µM (inactive) | 71.3 µM (inactive) |  |
| COc1cc2c(cc1OC)C1CN3CCCC3C(O)C1c1cc(OC)c(OC)cc1-2 (stereo unspecified) | > 100 µM (inactive) | > 100 µM (inactive) | 40.2 µM (inactive) | > 100 µM (inactive) |  | > 100 µM (inactive) | > 100 µM (inactive) |  | > 100 µM (inactive) | > 100 µM (inactive) | > 100 µM (inactive) | > 100 µM (inactive) | > 100 µM (inactive) | > 100 | > 100 µM (inactive) | > 100 µM (inactive) | > 100 µM (inactive) | 69.3 µM (inactive) | > 100 µM (inactive) |
| O=C1NC(N2CCOCC2)=N/C1=C\c1ccccc1O |  | > 100 µM (inactive) | > 100 µM (inactive) | > 100 µM (inactive) | > 100 µM (inactive) | > 100 µM (inactive) | > 100 µM (inactive) | > 100 µM (inactive) | > 100 µM (inactive) | > 100 µM (inactive) | > 100 µM (inactive) | > 100 µM (inactive) |  | > 100 | > 100 µM (inactive) | > 100 µM (inactive) | > 100 µM (inactive) | > 100 µM (inactive) | > 100 µM (inactive) |
| C/C(=N\Nc1nc2ccccc2[nH]1)c1cc2ccccc2cn1 | 0.592 µM (active) | 0.442 µM (active) | 1.11 µM (active) | 0.0741 µM (active) | 0.0382 µM (active) | 0.0345 µM (active) | < 0.018 µM (active) |  | < 0.01 µM (active) | 0.0853 µM (active) | < 0.012 µM (active) | 0.0243 µM (active) | 0.0531 µM (active) | < 0.0106 | 0.0755 µM (active) | < 0.01 µM (active) | < 0.0165 µM (active) | < 0.01 µM (active) | 0.0612 µM (active) |
| Cc1ccc2c(c1)C(=O)/C(=C1/CCc3ccc(C)cc31)C2 | > 100 µM (inactive) | > 100 µM (inactive) | > 100 µM (inactive) | > 100 µM (inactive) | > 100 µM (inactive) | > 100 µM (inactive) | 48.6 µM (inactive) |  | > 100 µM (inactive) | > 100 µM (inactive) | > 100 µM (inactive) | > 100 µM (inactive) | > 100 µM (inactive) | > 100 | > 100 µM (inactive) | > 100 µM (inactive) | 32.4 µM (inactive) | 86.5 µM (inactive) | > 100 µM (inactive) |
| NC(Cc1ccc(B(O)O)cc1)C(=O)NC(CO)CO (stereo unspecified) | > 100 µM (inactive) |  | > 100 µM (inactive) | > 100 µM (inactive) | > 100 µM (inactive) | > 100 µM (inactive) | > 100 µM (inactive) | > 100 µM (inactive) | > 100 µM (inactive) | > 100 µM (inactive) | > 100 µM (inactive) | > 100 µM (inactive) | > 100 µM (inactive) | > 100 |  | > 100 µM (inactive) | > 100 µM (inactive) | > 100 µM (inactive) | > 100 µM (inactive) |
| COc1cccc2c1NC(=O)Cc1c-2[nH]c2ccccc12 |  | > 100 µM (inactive) | > 100 µM (inactive) | 46.9 µM (inactive) | > 100 µM (inactive) | 81.5 µM (inactive) |  | > 100 µM (inactive) | 31.2 µM (inactive) | 30.8 µM (inactive) | > 100 µM (inactive) |  | > 100 µM (inactive) | 73.8 | > 100 µM (inactive) | > 100 µM (inactive) | 49.9 µM (inactive) | > 100 µM (inactive) | 87.7 µM (inactive) |
| C=C1C[C@H]2C=Nc3cc(OCCCOc4cc5c(cc4OC)C(=O)N4CC(=C)C[C@H]4C=N5)c(OC)cc3C(=O)N2C1 [SJG-136] | 0.0111 µM (active) |  | 0.0106 µM (active) | 0.0124 µM (active) | 0.0122 µM (active) | 0.00166 µM (active) | 0.0119 µM (active) |  | 0.0121 µM (active) | 0.0141 µM (active) | 0.0123 µM (active) | 0.0146 µM (active) | < 0.01 µM (active) | 0.124 | 0.00682 µM (active) | 0.0109 µM (active) | 0.0014 µM (active) | < 0.01 µM (active) | 0.0426 µM (active) |
